In ChEMBL document CHEMBL1201862, “PubChem BioAssay data set” (2004):
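Cells were grown in 96-well plates and exposed to each compound for 48 hours at five concentrations; endpoints were interpolated linearly between bracketing concentrations, or set to the highest concentration if not reached. GI50 = concentration required for 50% inhibition of growth.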 The source made the active and inactive calls. Cut-off read from the data, not from the text of the source: active = GI50 up to about 1.1 µM and inactive = higher.

Tests used:
Assay in all cases: NCI tumour cell line growth inhibition, 48 h
MDA-MB-435 = system: MDA-MB-435
MDA-MB-231 = system: MDA-MB-231
SW-620 = system: SW-620
HOP-92 = system: HOP-92
UO-31 = system: UO-31
HT-29 = system: HT-29
SNB-75 = system: SNB-75
COLO 205 = system: COLO 205
OVCAR-5 = system: OVCAR-5
U-251 = system: U-251
SK-MEL-28 = system: SK-MEL-28
SK-OV-3 = system: SK-OV-3
K562 = system: K562
PC-3 = system: PC-3
MDA-N = system: MDA-N
KM12 = system: KM12
MCF7 = system: MCF7
IGROV-1 = system: IGROV-1
SK-MEL-5 = system: SK-MEL-5
DMS-273 = system: DMS-273

Compound | GI50 (MDA-MB-435) | GI50 (MDA-MB-231) | GI50 (SW-620) | GI50 (HOP-92) | GI50 (UO-31) | GI50 (HT-29) | GI50 (SNB-75) | GI50 (COLO 205) | GI50 (OVCAR-5) | GI50 (U-251) | GI50 (SK-MEL-28) | GI50 (SK-OV-3) | GI50 (K562) | GI50 (PC-3) | GI50 (MDA-N) | GI50 (KM12) | GI50 (MCF7) | GI50 (IGROV-1) | GI50 (SK-MEL-5) | GI50 (DMS-273)
CC(=O)Nc1ccc(/C=C/C(=O)N2CC(CCl)c3c2cc(N)c2ccccc32)cc1 (centres undefined) | 0.00767 µM (active) | < 0.005 µM (active) | < 0.005 µM (active) | < 0.005 µM (active) | < 0.005 µM (active) | < 0.005 µM (active) | 0.01 µM (active) | 0.00893 µM (active) | < 0.005 µM (active) | < 0.005 µM (active) | 0.00641 µM (active) | 0.0091 µM (active) | 0.0211 µM (active) | < 0.005 µM (active) | 0.00553 µM (active) | 0.0064 µM (active) | < 0.005 µM (active) | < 0.005 µM (active) | < 0.005 µM (active) | 
O=C(O)c1ccc([N+](=O)[O-])c2c(=O)c3ccccc3[nH]c12 |  |  | > 100 µM (inactive) | > 100 µM (inactive) | > 100 µM (inactive) | > 100 µM (inactive) | 99.5 µM (inactive) | > 100 µM (inactive) | > 100 µM (inactive) | > 100 µM (inactive) |  | > 100 µM (inactive) | > 100 µM (inactive) |  |  | > 100 µM (inactive) |  | > 100 µM (inactive) | > 100 µM (inactive) | > 100 µM (inactive)
CCCCCCCC/C=C\CCCCCCCCNc1ccn(C2OC(COP(=O)(O)OC3CC(n4cc(F)c(=O)[nH]c4=O)OC3CO)C(O)C2O)c(=O)n1 (centres undefined) | 40.8 µM (inactive) | > 100 µM (inactive) | > 41.3 µM (inactive) | 7.93 µM (inactive) | 0.198 µM (active) | 4.19 µM (inactive) | 1.7 µM (inactive) | > 47.3 µM (inactive) | > 100 µM (inactive) | 2.89 µM (inactive) | 32.1 µM (inactive) | 14.6 µM (inactive) | 2.52 µM (inactive) | 28.7 µM (inactive) | > 55.1 µM (inactive) | 45 µM (inactive) | < 0.0394 µM (active) | > 26.7 µM (inactive) | 10.4 µM (inactive) | 
C/C(CC(=O)Nc1ccc(Cl)c(Cl)c1)=N/NC(=O)C[n+]1ccccc1 |  |  |  | > 100 µM (inactive) | > 100 µM (inactive) | > 100 µM (inactive) |  | 31.8 µM (inactive) | > 100 µM (inactive) | > 100 µM (inactive) | > 100 µM (inactive) | > 100 µM (inactive) | 45.8 µM (inactive) |  |  | 88.7 µM (inactive) |  | > 100 µM (inactive) | > 100 µM (inactive) | 40.9 µM (inactive)
Cc1cc(Cl)ccc1N1C(=O)C(=O)C(c2nc3ccccc3o2)C(=O)C1=O |  |  | 43.7 µM (inactive) | 58.7 µM (inactive) | > 100 µM (inactive) | 65.8 µM (inactive) | 63.4 µM (inactive) | 31.1 µM (inactive) |  | > 100 µM (inactive) | 96.4 µM (inactive) | > 100 µM (inactive) |  |  |  | > 100 µM (inactive) |  | 35.6 µM (inactive) | > 100 µM (inactive) | > 100 µM (inactive)
COc1ccc(-c2cc(C(O)C3CCCCN3)c3ccccc3n2)cc1 (centres undefined) | 3.73 µM (inactive) | 2.36 µM (inactive) | 9.59 µM (inactive) | 2.86 µM (inactive) | 3.59 µM (inactive) | 3.11 µM (inactive) | 4.31 µM (inactive) | 1.89 µM (inactive) | 12 µM (inactive) | 3.63 µM (inactive) | 2.43 µM (inactive) | 14.2 µM (inactive) | 2.54 µM (inactive) | 5.08 µM (inactive) | 4.92 µM (inactive) | 4.14 µM (inactive) | 3.87 µM (inactive) | 8.45 µM (inactive) | 6.25 µM (inactive) | 
Clc1ncc(C(Cl)(Cl)Cl)nc1-c1ccccc1 | 1.77 µM (inactive) | 1.97 µM (inactive) | 4.21 µM (inactive) | 1.99 µM (inactive) | 1.84 µM (inactive) | 1.82 µM (inactive) | 2.56 µM (inactive) | 1.87 µM (inactive) | 16.1 µM (inactive) | 1.84 µM (inactive) | 3.79 µM (inactive) | 11.9 µM (inactive) | 2.46 µM (inactive) | 1.78 µM (inactive) | 1.87 µM (inactive) | 1.82 µM (inactive) | 1.68 µM (inactive) | 2.4 µM (inactive) | 12.2 µM (inactive) | 
COc1ccc2oc(-c3cc4cc(OC)ccc4o3)cc2c1 |  |  | > 100 µM (inactive) | > 100 µM (inactive) | > 100 µM (inactive) |  | > 100 µM (inactive) | > 100 µM (inactive) | > 100 µM (inactive) |  | > 100 µM (inactive) | > 100 µM (inactive) | > 100 µM (inactive) |  |  | > 100 µM (inactive) |  | > 100 µM (inactive) | > 100 µM (inactive) | > 100 µM (inactive)
CC(=O)OC1COC(N2C(=O)C(=O)c3cc(Br)c([N+](=O)[O-])cc32)C(OC(C)=O)C1OC(C)=O (centres undefined) |  |  | > 100 µM (inactive) | 34.8 µM (inactive) |  | > 100 µM (inactive) | 22.5 µM (inactive) | > 100 µM (inactive) | > 100 µM (inactive) | > 100 µM (inactive) | 86.5 µM (inactive) | 96.8 µM (inactive) | 26.2 µM (inactive) |  |  | > 100 µM (inactive) |  | > 100 µM (inactive) | > 100 µM (inactive) | > 100 µM (inactive)
COc1ccc(C2ON(c3ccccc3)CC=C2C)cc1 (centres undefined) |  |  | > 100 µM (inactive) |  | 34 µM (inactive) | 34.4 µM (inactive) | 94.8 µM (inactive) | 99.3 µM (inactive) | 34 µM (inactive) | 99.8 µM (inactive) | 61.8 µM (inactive) | > 100 µM (inactive) | 60.5 µM (inactive) |  |  | 99.1 µM (inactive) |  | > 100 µM (inactive) |  | 64.7 µM (inactive)
CCN(CC)c1ccc(/N=N/c2ccc([N+](=O)[O-])cc2OC(=O)/C=C/c2ccccc2)c(OC(=O)/C=C/c2ccccc2)c1 |  |  | 7.57 µM (inactive) | > 100 µM (inactive) | 4.45 µM (inactive) | > 100 µM (inactive) | 8.04 µM (inactive) | > 100 µM (inactive) |  | 5.43 µM (inactive) | 7.03 µM (inactive) | 4.16 µM (inactive) | > 68.9 µM (inactive) |  |  | 3.83 µM (inactive) |  | 18.5 µM (inactive) | 12.2 µM (inactive) | 5.5 µM (inactive)
O=c1cccccc1NCCCNc1cccccc1=O |  |  | > 100 µM (inactive) | > 100 µM (inactive) | > 100 µM (inactive) | 88.3 µM (inactive) |  | > 100 µM (inactive) | > 100 µM (inactive) | > 100 µM (inactive) |  | > 100 µM (inactive) | > 100 µM (inactive) |  |  | > 100 µM (inactive) |  | > 100 µM (inactive) |  | > 100 µM (inactive)
CCc1ccccc1NC(=O)/C(CC(=O)c1c(C)[n+]([O-])c2ccccc2[n+]1[O-])=N\NS(=O)(=O)c1ccc(C)cc1 |  |  | 25.9 µM (inactive) |  | > 100 µM (inactive) | 38.7 µM (inactive) | > 100 µM (inactive) | 36.8 µM (inactive) | > 100 µM (inactive) | 27 µM (inactive) | 47.9 µM (inactive) | > 100 µM (inactive) | 27.2 µM (inactive) |  |  | 36.9 µM (inactive) |  | 26.5 µM (inactive) |  | 35.4 µM (inactive)
CCOP(=O)(OCC)/C(C#N)=C/c1cccn1Cc1ccccc1 | 19.4 µM (inactive) | 22.4 µM (inactive) | 25.8 µM (inactive) | 13.5 µM (inactive) | 24.4 µM (inactive) | 32.7 µM (inactive) | 39.9 µM (inactive) | 21.5 µM (inactive) | 83.2 µM (inactive) | 22.6 µM (inactive) | 19.7 µM (inactive) | 53 µM (inactive) | 28.2 µM (inactive) | 31.9 µM (inactive) | 29.9 µM (inactive) | 26.9 µM (inactive) | 29.5 µM (inactive) | 26.1 µM (inactive) | 16.1 µM (inactive) | 
CC(C)(C)C1CCP(=O)(c2ccccc2)CC1 (centres undefined) |  |  | > 100 µM (inactive) |  | > 100 µM (inactive) | > 100 µM (inactive) | > 100 µM (inactive) | > 100 µM (inactive) | > 100 µM (inactive) | > 100 µM (inactive) | > 100 µM (inactive) | > 100 µM (inactive) | > 100 µM (inactive) |  |  | > 100 µM (inactive) |  | > 100 µM (inactive) | > 100 µM (inactive) | > 100 µM (inactive)
C[n+]1cccc(NC(=O)c2ccc(NC(=O)C34CCC(C(=O)Nc5ccc(C(=O)Nc6ccc[n+](C)c6)cc5)(CC3)CC4)cc2)c1 |  |  | 70.1 µM (inactive) | > 100 µM (inactive) |  | 45.9 µM (inactive) | 2.84 µM (inactive) | > 10 µM (inactive) | > 100 µM (inactive) | 27.9 µM (inactive) | 42.2 µM (inactive) |  | 2.55 µM (inactive) |  |  | 1.92 µM (inactive) |  | 13.5 µM (inactive) | 33.2 µM (inactive) | 6.82 µM (inactive)
Cc1ccc(NC(=O)c2cccc([N+](=O)[O-])c2O)c([N+](=O)[O-])c1 |  |  | 16.8 µM (inactive) | 21.5 µM (inactive) | 24.1 µM (inactive) | 12.1 µM (inactive) | 13.7 µM (inactive) | 19.9 µM (inactive) | 20.2 µM (inactive) | 14.3 µM (inactive) | 16.7 µM (inactive) | 26.9 µM (inactive) | 18.8 µM (inactive) |  |  | 10.6 µM (inactive) |  | 20.9 µM (inactive) |  | 11.7 µM (inactive)
CC1(C)N=C(N)N=C(N)N1c1ccc(Cl)cc1 | 1.79 µM (inactive) | 21.7 µM (inactive) | 1.48 µM (inactive) | 24.1 µM (inactive) | 47.2 µM (inactive) | 2.92 µM (inactive) | > 100 µM (inactive) | 7.06 µM (inactive) | 15 µM (inactive) | 1.3 µM (inactive) | 37.1 µM (inactive) | 27.4 µM (inactive) | 0.317 µM (active) | 1.88 µM (inactive) | 1.51 µM (inactive) | 8.73 µM (inactive) | 15.6 µM (inactive) | 2.23 µM (inactive) | 8.11 µM (inactive) | 
